# Source: ChEMBL document CHEMBL1201862, “PubChem BioAssay data set” (2004)
# Active and inactive are the calls of the source.
# Assays:
# [1] = P. falciparum Dd2 growth inhibitors, dose response, SYBR Green, cherry-picked samples (AID 1159567); type: functional, cell-based
# [2] = HepG2 cell cytotoxicity, dose response, cytotoxicity control, cherry-picked samples (AID 1159577); type: functional, cell-based
# [3] = target: E3 ubiquitin-protein ligase Mdm2 (Homo sapiens, UniProt Q00987); assay: enhancers of MDM2-luciferase reporter signal, concentration-effect titration, project on inhibitors of MDM2 ubiquitin ligase, cellular assay, luminescent readout, 384-well plate format (AID 1394); type: functional;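 also: MDM2 E3 inhibitors raise luminescence so EC50 is for signal enhancement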
# [4] = target: T1, Heat shock factor protein 1 (Mus musculus, UniProt P38532); assay: inhibition of MG132-induced HSE-luciferase signal, confirmation, cell-based, NIH3T3, luminescence, dose retest (AID 2382); type: functional;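 also: NIH3T3 fibroblasts with HSF1-driven luciferase reporter stressed by proteasome inhibitor MG132; luminescence from HSF1-driven luciferase expression after 8 hours of MG132 stress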
# T1 sequence (P38532 whole entry): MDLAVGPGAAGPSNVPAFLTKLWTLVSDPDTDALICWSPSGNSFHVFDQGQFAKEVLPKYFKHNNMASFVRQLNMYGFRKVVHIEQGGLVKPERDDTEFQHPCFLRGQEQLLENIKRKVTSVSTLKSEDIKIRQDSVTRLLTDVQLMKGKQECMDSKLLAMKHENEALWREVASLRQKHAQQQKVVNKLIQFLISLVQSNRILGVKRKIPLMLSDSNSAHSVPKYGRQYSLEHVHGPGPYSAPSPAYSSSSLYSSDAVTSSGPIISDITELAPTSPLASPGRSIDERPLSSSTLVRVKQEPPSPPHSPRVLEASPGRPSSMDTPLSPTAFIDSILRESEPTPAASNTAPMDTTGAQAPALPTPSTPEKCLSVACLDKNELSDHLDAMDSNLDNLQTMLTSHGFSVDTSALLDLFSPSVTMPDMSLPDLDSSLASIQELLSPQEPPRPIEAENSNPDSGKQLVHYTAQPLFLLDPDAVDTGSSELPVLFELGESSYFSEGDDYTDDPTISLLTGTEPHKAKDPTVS
# [5] = THP-1 cell cytotoxicity, dose response, cytotoxicity control for non-replicating M. tuberculosis project (AID 489025); type: functional
# [6] = Vero E6 cell cytotoxicity, dose response, cytotoxicity control for non-replicating M. tuberculosis project, secondary assay (AID 492998); type: functional, VeroE6; conditions: Vero C1008
# [7] = target: T2, Protein skinhead-1 (Caenorhabditis elegans, UniProt P34707); type: functional
# T2 sequence (P34707 whole entry): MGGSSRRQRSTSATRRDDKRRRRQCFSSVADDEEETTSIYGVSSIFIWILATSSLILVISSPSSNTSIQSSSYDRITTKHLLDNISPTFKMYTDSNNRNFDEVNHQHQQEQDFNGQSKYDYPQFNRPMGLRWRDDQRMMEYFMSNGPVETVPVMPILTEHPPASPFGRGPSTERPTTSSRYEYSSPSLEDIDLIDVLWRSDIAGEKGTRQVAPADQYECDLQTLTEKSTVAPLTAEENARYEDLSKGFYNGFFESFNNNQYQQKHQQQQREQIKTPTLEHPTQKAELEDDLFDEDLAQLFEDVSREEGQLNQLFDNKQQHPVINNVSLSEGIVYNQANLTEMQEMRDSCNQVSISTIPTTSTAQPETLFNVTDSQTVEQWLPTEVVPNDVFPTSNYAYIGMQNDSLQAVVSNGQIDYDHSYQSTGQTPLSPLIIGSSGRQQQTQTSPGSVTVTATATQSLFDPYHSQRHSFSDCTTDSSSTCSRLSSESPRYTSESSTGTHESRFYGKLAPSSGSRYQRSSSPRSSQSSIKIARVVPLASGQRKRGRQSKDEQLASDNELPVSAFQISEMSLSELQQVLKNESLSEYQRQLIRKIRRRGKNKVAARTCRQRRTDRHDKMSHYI
# [8] = Vero cell cytotoxicity, dose response, cytotoxicity control for Vif-APOBEC3G degradation inhibitor project, Vero cells (AID 1117358); type: functional; conditions: Human immunodeficiency virus 1, Vero
# [9] = target: T3, Aryl hydrocarbon receptor (Homo sapiens, UniProt P35869); assay: Luminescence-based cell-based high throughput dose response assay for activators of the Aryl Hydrocarbon Receptor (AHR). [Related pubchem assays: 2796 (Primary screen (AHR activators in singlicate)), 2845 (Confirmation screen (AHR activators in triplicate)), 434939 (Counterscreen (PXR activators in triplicate)), 2804 (Summary (AHR activators))]; type: ADME
# T3 sequence (P35869 whole entry): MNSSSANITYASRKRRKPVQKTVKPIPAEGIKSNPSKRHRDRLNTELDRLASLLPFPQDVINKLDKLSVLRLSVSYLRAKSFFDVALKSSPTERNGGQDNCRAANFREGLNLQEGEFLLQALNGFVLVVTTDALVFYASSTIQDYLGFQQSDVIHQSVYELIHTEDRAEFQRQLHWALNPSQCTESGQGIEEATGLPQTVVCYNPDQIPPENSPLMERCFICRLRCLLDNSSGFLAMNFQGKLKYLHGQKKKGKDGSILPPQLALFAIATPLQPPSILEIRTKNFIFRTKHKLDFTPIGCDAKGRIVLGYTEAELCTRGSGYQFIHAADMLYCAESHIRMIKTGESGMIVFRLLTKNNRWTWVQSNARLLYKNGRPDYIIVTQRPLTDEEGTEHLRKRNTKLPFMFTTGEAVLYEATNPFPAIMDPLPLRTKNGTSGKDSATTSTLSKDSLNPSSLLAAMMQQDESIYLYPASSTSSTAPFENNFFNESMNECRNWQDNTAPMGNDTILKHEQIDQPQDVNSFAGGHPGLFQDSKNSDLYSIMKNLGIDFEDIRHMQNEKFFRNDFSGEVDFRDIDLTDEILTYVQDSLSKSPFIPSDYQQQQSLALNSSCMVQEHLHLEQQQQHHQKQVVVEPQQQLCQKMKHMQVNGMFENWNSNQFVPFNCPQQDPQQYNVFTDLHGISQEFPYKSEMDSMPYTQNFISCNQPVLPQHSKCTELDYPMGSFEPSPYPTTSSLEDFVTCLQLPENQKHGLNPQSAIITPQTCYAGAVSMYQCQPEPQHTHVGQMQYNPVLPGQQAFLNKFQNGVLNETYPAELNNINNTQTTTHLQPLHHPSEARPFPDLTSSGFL
# [10] = target: T4, Estrogen receptor (Homo sapiens, UniProt P03372);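 also: potency for inhibiting coactivator peptide recruitment to the receptor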
# T4 sequence (P03372 whole entry): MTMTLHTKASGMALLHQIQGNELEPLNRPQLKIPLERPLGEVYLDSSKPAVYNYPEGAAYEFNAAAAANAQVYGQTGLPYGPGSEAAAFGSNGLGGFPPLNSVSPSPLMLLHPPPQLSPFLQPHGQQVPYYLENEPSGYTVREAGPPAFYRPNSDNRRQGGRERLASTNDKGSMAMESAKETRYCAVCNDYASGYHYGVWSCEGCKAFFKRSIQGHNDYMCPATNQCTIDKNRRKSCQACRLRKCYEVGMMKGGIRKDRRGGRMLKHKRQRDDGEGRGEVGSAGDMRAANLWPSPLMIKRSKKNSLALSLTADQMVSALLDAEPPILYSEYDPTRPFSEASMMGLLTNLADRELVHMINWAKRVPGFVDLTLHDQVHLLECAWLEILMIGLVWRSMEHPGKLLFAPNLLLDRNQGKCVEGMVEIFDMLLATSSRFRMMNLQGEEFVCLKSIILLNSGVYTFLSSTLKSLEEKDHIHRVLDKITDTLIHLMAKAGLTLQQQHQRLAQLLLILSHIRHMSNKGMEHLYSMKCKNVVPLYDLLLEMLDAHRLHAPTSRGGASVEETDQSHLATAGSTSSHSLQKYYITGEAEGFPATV
# [11] = target: Estrogen receptor beta (Homo sapiens, UniProt Q92731);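 also: recombinant ER-beta bound to coactivator SRC1 peptide in presence of estradiol agonist; inhibitors block coactivator peptide binding and lower the FRET signal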
# Sequence of Estrogen receptor beta (Q92731 whole entry): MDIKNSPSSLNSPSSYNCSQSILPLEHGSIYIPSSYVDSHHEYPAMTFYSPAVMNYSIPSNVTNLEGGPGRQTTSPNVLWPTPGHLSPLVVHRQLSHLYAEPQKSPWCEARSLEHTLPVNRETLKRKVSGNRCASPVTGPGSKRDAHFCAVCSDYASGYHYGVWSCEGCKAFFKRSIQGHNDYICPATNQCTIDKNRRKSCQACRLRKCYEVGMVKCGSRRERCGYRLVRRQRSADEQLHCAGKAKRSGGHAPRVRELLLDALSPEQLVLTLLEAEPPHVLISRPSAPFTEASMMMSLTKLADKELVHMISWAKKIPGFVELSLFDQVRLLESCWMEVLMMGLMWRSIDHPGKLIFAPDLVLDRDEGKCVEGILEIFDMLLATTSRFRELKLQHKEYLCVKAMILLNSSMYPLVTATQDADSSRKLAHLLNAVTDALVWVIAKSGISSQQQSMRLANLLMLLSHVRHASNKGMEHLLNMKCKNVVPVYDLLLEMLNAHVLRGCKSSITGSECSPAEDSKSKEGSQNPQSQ
# Sequence of E3 ubiquitin-protein ligase Mdm2 (Q00987 whole entry): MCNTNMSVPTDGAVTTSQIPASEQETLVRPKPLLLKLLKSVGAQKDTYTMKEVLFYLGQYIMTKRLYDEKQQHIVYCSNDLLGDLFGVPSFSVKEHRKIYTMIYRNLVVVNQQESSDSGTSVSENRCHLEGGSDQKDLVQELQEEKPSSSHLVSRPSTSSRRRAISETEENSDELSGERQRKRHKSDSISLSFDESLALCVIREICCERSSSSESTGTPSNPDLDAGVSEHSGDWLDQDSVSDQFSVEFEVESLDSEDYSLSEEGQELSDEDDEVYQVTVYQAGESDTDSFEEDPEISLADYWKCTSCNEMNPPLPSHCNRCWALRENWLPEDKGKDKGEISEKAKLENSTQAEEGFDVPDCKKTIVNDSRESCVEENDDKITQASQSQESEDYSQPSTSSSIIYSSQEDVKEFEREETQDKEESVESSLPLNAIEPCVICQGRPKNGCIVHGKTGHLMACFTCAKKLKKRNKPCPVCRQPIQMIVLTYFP
structure (smiles),measurement,setting,value
CCC(=O)N1CC(=O)N2[C@@H](CO)[C@H](c3ccc(C#CCc4ccccc4)cc3)[C@@H]2C1,AC50,[1],11.4 µM (active)
same,AC50,[2],25.2 µM (active)
COc1ccc(Nc2nc(C(=O)N3CCc4ccccc4C3)cs2)cc1,EC50,[3],12.3 µM (not active)
C[C@H]1CN([C@@H](C)CO)C(=O)c2ccccc2-c2ccccc2CO[C@H]1CN(C)Cc1ccc(C(F)(F)F)cc1,AC50,[1],3.03 µM (active)
same,AC50,[2],> 42 µM (inactive)
CCN1C(C(=O)c2ccccc2)=C(O)c2ccccc2S1(=O)=O,EC50,[4],> 195 µM (not active)
same,CC50,[5],26.2 µM (active)
same,CC50,[6],19.2 µM (active)
same,IC50,[7],> 100 µM (inactive)
same,CC50,[8],24.3 µM (active)
Cc1cnc(NC(=O)c2c(Cl)cnn2C)s1,EC50,[9],5.87 µM (active)
Cc1ccc(S(=O)(=O)Cc2ccc(C(=O)N3CCC4(CC3)OCCO4)o2)cc1,IC50,[10],43 µM (not active)
same,IC50,[11],12.8 µM (active)
